Experimental data taken from a melting point compilation (Tetko et al.; mined from patent text by program, amines drawn as free bases though some values may be those of a salt).

Row | Compound | melting point [°C]
1 | Nc1ccccc1SC(F)(F)F | 30 to 31
2 | CC(=O)C(=O)Oc1ccc(NCc2c(F)c(F)c(C(F)(F)F)c(F)c2F)cc1C(=O)O | 128
3 | CCCc1c(OCCOCCOc2c(C(C)=O)ccc(OCC(=O)O)c2CCC)ccc(C(C)=O)c1O | 96 to 99
4 | CN1CCC2(CC1)OC(c1ccccc1)c1ccccc12 (centres undefined) | 123 to 124
5 | COc1cc(/C=C/C(=O)Nc2ccccc2C(=O)O)ccc1OC1CCCCC1 | 90 to 92
6 | CCCCCCCNC(=O)N(C)c1cccc(-c2ccc(C=C(OC)C(=O)O)cc2OCCCC)c1 | 99
7 | CC(C)c1nc(COCCOC(N)=O)n(Cc2ccccn2)c1Sc1cc(F)cc(F)c1 | 110 to 111
8 | CC(=O)CC(=O)C=Cc1ccc(O)cc1Cl | 125 to 129
9 | CNC(=O)Cn1c(-c2ccc(Br)o2)nc2cccnc21 | 187 to 191
10 | CC(=O)OC(C)c1cccc2cc(C(=O)CBr)oc12 (centres undefined) | 86 to 88
11 | CC(C)Nc1cccnc1N1CCN(C(=O)c2ccc(C(=O)N(C(C)C)C(C)C)cc2)CC1 | 152 to 153
12 | NS(=O)c1ccccc1 (centres undefined) | 112 to 115
13 | CCCCc1nc2ccccn2c(=O)c1-c1ccc(NC[C@H]2CCCO2)cc1 | 155 to 170
14 | CC(c1ccccc1)N1CC(CCl)C(c2ccccc2)(c2ccccc2)C1=O (centres undefined) | 115 to 120
15 | CN(C)CCCC1CCCN(C(=O)N2c3ccccc3C(=O)Nc3cccnc32)C1 (centres undefined) | 115 to 117
16 | Oc1ccc(Oc2ncc(C(F)(F)F)cc2F)cc1 | 97
17 | CC(C)(C)OC(=O)NC1Cc2ccccc2C1Oc1ccccc1Cc1ccccc1 (centres undefined) | 113 to 114
18 | CCOC(=O)Cn1[nH]c(=O)c2ccccc2c1=O | 68 to 70
19 | CC(C)(C)C(NC(=O)c1ccc(Cl)cc1)NC(=S)Nc1cccnc1 (centres undefined) | 164 to 167
20 | O=C1c2ccccc2C(=O)N1SN1C(=O)c2ccccc2C1=O | 301 to 315
21 | Cc1oc(-c2ccccc2)nc1COc1ccc(CCCC2OC(=O)NC2=O)cc1OC(C)C (centres undefined) | 120 to 121
22 | CCOC(=O)C(=O)Nc1ccccc1C(=O)Nc1nnn[nH]1 | 231 to 232
23 | CC12CCC(=O)C=C1CCC1C3CC(OCC(=O)c4ccccc4)C(O)(C(=O)CO)C3(C)CC(O)C12F (centres undefined) | 228 to 230
24 | CC(C)=CCCC(C)C1CCC2C3CCC4CC(O)CCC4(C)C3CCC12C (centres undefined) | 117 to 118
25 | CCCn1cnc2c(=O)[nH]c(N)nc21 | > 300

Row | Compound | melting point [°C]
26 | CC(C(=O)O)c1ccc(-c2ccccc2F)cc1 (centres undefined) | 94.5 to 97
27 | CCn1c2c(c3ccccc31)Cc1c(C(=O)OC)c(C(=O)OC)c(C)n1C2 | 202 to 203
28 | O=C(O)CNCC(=O)NC[C@@H]1CC(c2ccc(-c3ccc(N4C[C@H](Cn5ccnn5)OC4=O)cc3F)cn2)=NO1 | 200 to 210
29 | O=c1cc(-c2ccccc2)oc2cc(OCCCCCN3CCC(O)CC3)ccc12 | 94 to 95
30 | CCOC(=O)c1ccc(Cl)nn1 | 145 to 150
31 | CC(=O)S[C@H]1CNC(=O)C1 | 114 to 116
32 | CC(C)(C)c1ncc(C(C(=O)O)C(C)(C)C)cn1 (single isomer, unassigned; (+)) | 222 to 224
33 | CCOCc1nc2c(N)nc3ccccc3c2n1Cc1cc(-c2ccccc2)on1 | 221 to 223
34 | O=C(CCCCC1CCSS1)Nc1nc(=S)ss1 (centres undefined) | 158 to 161
35 | O=C(O)CCCN1CCN(C2=Nc3ccccc3Cc3ccccc32)CC1 | 207 to 208
36 | CSCCCn1cc(C(=O)NCc2ccc(Cl)cc2)c(=O)c2cc(CN3CCOCC3)ccc21 | 102 to 104
37 | CCCCCC=CCC=CCCCCCCCCBr | 35
38 | CCCCc1cc2c3c(c[nH]c3c1)CC1C2CC(NC(=O)c2ccccc2)CN1C (centres undefined) | 143 to 145
39 | C=CC(=O)NC1Cc2ccc(-c3ccc(=O)[nH]n3)cc2C1 (centres undefined) | 235 to 237
40 | O=C(NC1CN2CCC1CC2)C1(O)c2ccccc2-c2ccccc21 (centres undefined) | 230
41 | CCCNC(=O)CCn1c(CCC)nc2c(N)nc3ccccc3c21 | 157 to 158
42 | CC(=O)c1cc(NC(=O)OC(C)(C)C)ccc1O | 107 to 108
43 | CC(C(=O)O)c1ccc2c(c1)C(=O)Cc1cc([N+](=O)[O-])ccc1S2 (centres undefined) | 210 to 211
44 | COc1ccc(S(=O)(=O)N(Cc2cccnc2)c2c(C(=O)O)cnc3c2c(C)nn3-c2ccccc2)cc1 | 192 to 194
45 | Cc1cc(-c2cccc(C#N)c2)c(C(=O)NCCN2CCOCC2)c(C)n1 | 158 to 161
46 | Cc1cccc(Cl)c1NC(=O)n1nc(Oc2cccc(C(F)(F)F)c2)cc1C | 55 to 58
47 | c1ccc(N2CCN(c3nsc4ccccc34)CC2)cc1 | 260 to 262
48 | CN(C)CCc1c[nH]c2ccc(Oc3ccc(Br)cc3)cc12 | 160 to 162
49 | Nc1sc2c(c1C(=O)c1ccc(Br)cc1)CCN(C(=O)Nc1ccccc1)C2 | 89 to 90
50 | CCc1nc2c(cnn2CC)c(NC2CCOCC2)c1CNC(=O)c1cccc(C(=O)NCc2ccc(C)c(Br)c2)c1 | 175 to 176

Row | Compound | melting point [°C]
51 | CC(=O)c1cc(Cl)sc1S(N)(=O)=O | 178 to 179
52 | O=C(NCCO)c1ccnc(-c2cccc3cc(Cc4cccc(C(F)(F)F)c4)sc23)c1F | 110 to 111
53 | COc1ccc(CCCC2SC(=O)NC2=O)c2ccc(=O)n(C)c12 (centres undefined) | 172 to 175
54 | CCOc1ccc(S(=O)(=O)Nc2cccnc2Nc2ccccc2)cc1 | 161 to 162
55 | Cc1cccc(C)c1COc1cc(C(=O)O)cc2c1nc(C)n2C | 285 to 286
56 | Cc1noc(NS(=O)(=O)c2ccccc2-c2cc3ccccc3[nH]2)c1C | 172 to 175
57 | COc1ccc(-c2[nH]cnc2-c2cc(OC)c(O)c(OC)c2)cc1F | 125 to 127
58 | CCCc1c(COc2ccc(Cc3nnn(CC(=O)O)n3)cc2)ccc(C(C)=O)c1O | 87 to 90
59 | O=[N+]([O-])c1cccc(Cn2c(-c3ccc4c(c3)OCO4)nc3ccccc32)c1 | 70.2 to 73
60 | COc1cccc(CC(=NO)c2ccccc2)c1 | 72 to 73
61 | Cc1nc(Cc2ccc(O)cc2)c2c(c1OCCCCNC(C)C)COC2 | 59 to 61
62 | COC1=C(OC)C(=O)C(CCCCCCCCCC(=O)N[C@H](CCC(=O)OCc2ccccc2)C(N)=O)=C(C)C1=O | 83 to 85
63 | CCCn1c2cc(OC)ccc2c2oc(C(=O)Cl)cc21 | 195 to 196
64 | O=C(O)CCC(=O)c1ccc(CCNS(=O)(=O)CCc2ccc(Cl)cc2)cc1 | 112
65 | Cc1c(CON2C(=O)c3ccccc3C2=O)ncn1C(c1ccccc1)(c1ccccc1)c1ccccc1 | 220 to 223
66 | CC1(C)CCC(C)(C)c2cc(-c3cc(CO)cc(-c4ccc(C(=O)O)cc4)c3)ccc21 | 213
67 | COc1ccc2[nH]c3c(c2c1)C[C@@]1(C)C(=O)N(CCCN(C)C)C(=O)N1[C@@H]3c1cccc(O)c1 (racemic) | 228 to 231
68 | C/C(=C\c1ccc(-c2ccccc2)cc1)C(=O)O | 178
69 | CCOC(=O)c1sc(N2C[C@@H](Cc3ccccc3)NC2=O)nc1C | 102 to 103
70 | Nc1nc(NCCNCC(O)COc2ccccc2)c2ccccc2n1 (centres undefined) | 152 to 156
71 | CN(C)Cc1ccc(CNC(=O)C2Cc3ccccc3N2S(=O)(=O)c2ccc(-c3cccc(C(F)(F)F)c3)cc2)cc1 (centres undefined) | 70
72 | Cc1cc(C)cc(C(=O)c2[nH]c(=O)[nH]c(=O)c2C(C)C)c1 | 149 to 150
73 | CCOC(=O)C(=Cc1ccc(-c2ccc(Cl)cc2)o1)C(=O)OCC | 78 to 80
74 | CCOC(=O)C1=C(C)NC(c2scnc2C)=NC1c1ccc(F)cc1Cl (centres undefined) | 134 to 139
75 | CC(=O)OCC(=O)C1CC(OS(=O)(=O)c2c(C)cc(C)cc2C)C2C3CCC4CC(OC(C)=O)CCC4(C)C3CC(OC(C)=O)C12C (centres undefined) | 156 to 157

Row | Compound | melting point [°C]
76 | N#Cc1cc([N+](=O)[O-])ccc1N1CCC(N2CCCCC2)CC1 | 134 to 135
77 | Cc1ccc(-c2ccccc2NC(=N)N(C)C)cc1 | 147 to 148
78 | O=C(O)c1ccc(OCCCCCCO)cc1F | 98 to 99
79 | CC(=O)Oc1cnccc1CCCOc1cccnc1Cc1cccc(Br)c1 | 122 to 128
80 | CC(CCCC(C)(C)O)C1CC(=O)C2=C3CCC4CC(O)CCC4(C)C3CCC21C (centres undefined) | 177 to 179
81 | c1snc2c1Sc1csnc1S2 | 190 to 191
82 | CCCCCCCCCc1c(Cl)nc(-c2ccc(OC)c(F)c2)nc1Cl | 59 to 60
83 | COC(=O)C(C#N)=CC1=C(N2CCCC2)CCCC1 | 133 to 134
84 | CCCCCCCCC=CCCCCCCCC(=O)CCCNC(=O)CCNC(C)=O | 123 to 125
85 | COc1ccc(C(CC(=O)Nc2ccc(NC(=O)Nc3ccccc3C)cc2)NC(=O)c2ccc(C(=O)O)cc2)cc1OC (centres undefined) | 166
86 | OCc1ncc2n1CCCC2 | 188 to 199
87 | CCNC(=O)c1ccccc1Nc1nc(Nc2cc3c(cc2OC)CCN(CC(=O)NC)CC3)ncc1Cl | 99 to 110
88 | CCOC(=O)C1=C(C)NC(C=O)=C(C(=O)OCC)C1c1cc([N+](=O)[O-])ccc1Cl (centres undefined) | 172 to 173
89 | COc1ccc(C(=O)Cc2ccncc2)cc1OC1CCCC1 | 102 to 103
90 | COc1ccc(C(=O)Cc2cc(OC)cc(Br)c2OC)cc1 | 91 to 93
91 | CCn1c2c(c3ccc(OC)cc31)CN(C(=O)c1ccc(C)c3ccccc13)CC2 | 209 to 210
92 | CCCCc1nc2ccccc2n1Cc1ccc(-c2ccccc2C(=O)O)cc1 | 225 to 227
93 | NC(=O)c1c(F)ccc(OCC=CC(=O)O)c1F | 187 to 188
94 | CN1C(=O)Cc2cc(C3=NNC(=O)CC3)ccc21 | 261 to 264
95 | CCOCc1nc2c(N)nc3ccccc3c2n1CCCC1(O)CCCCC1 | 175 to 176
96 | COc1ccc2c(c1)C(=O)C(Cc1ccccc1)CO2 (centres undefined) | 71 to 72
97 | CC(=O)c1ccc([N+](=O)[O-])c(Nc2cccc(-c3cccnc3)c2)c1 | 112 to 113
98 | COC(=O)c1nc(S(C)(=O)=O)ncc1Cl | 96
99 | NS(=O)(=O)c1ccc(-n2ncc(F)c2-c2ccccc2)cc1 | 194
